According to patent publication US4599357A, “1-mercaptoalkanoylindoline-2-carboxylic acids” (Ciba-Geigy Corporation, priority 1980, dated 1986):

Tested on: angiotensin I converting enzyme
Test: inhibition of the angiotensin I pressor response in anesthetized normotensive rats
Type: in vivo
Procedure: The enzyme renin, normally causes specific hydrolysis of the circulating protein renin-substrate. This hydrolysis generates angiotensin I, which is further hydrolyzed by the action of said converting enzyme to the potent vasoconstrictor angiotensin II. The inhibition of said enzyme prevents the generation of angiotensin II from I and, therefore, attenuates any pressure response following an angiotensin I challenge.
The corresponding in vivo test is performed with male, normotensive rats, which are anesthetized with 100-120 mg/kg i.p. of sodium ethyl-(1-methylpropyl)malonylthiourea. A femoral artery and saphenous vein are cannulated for direct blood pressure measurement and i.v. administration of angiotensin I and compounds of this invention. After the basal blood pressure is stabilized, pressor responses to 3 challenges of 0.33 μg/kg of angiotensin I i.v., in 5 minute intervals, are obtained. Such pressure responses are again obtained 5, 10, 15, 30 and 60 minutes after either i.v., or p.o. administration (stomach tube) of the compounds to be tested, and compared with the initial responses. Any observed decrease of said pressor response is an indication of angiotensin I converting enzyme inhibition, ranging up to 80% after 10 mg/kg i.v., or 50 mg/kg p.o. doses, which decrease may be sustained up to 60 minutes.

Compound: C[C@H](CS)C(=O)N1c2ccccc2C[C@H]1C(=O)O [1-(3-mercapto-2S-methylpropanoyl)-indoline-2S-carboxylic acid]
- inhibitory effect against the angiotensin I pressure response: inhibitory effect
